{"source": "patent US11008549B2", "about": "“In vitro model for a tumor microenvironment” (HemoShear, LLC, priority 2013, dated 2021)", "key": {"cytochrome p450 1A/1B": {"test_system": "cytochrome p450 1A/1B", "assay": "Cytochrome p450 1A/1B activity (P450-GLO) in rat hepatocytes after inducer", "type": "in vitro ADME", "details": "controlled hemodynamics, 3-MC 0.1 μM, 48 hours, day 7", "description": "(§1) Cytochrome Activity Assays: Hepatocytes were cultured in the cone-and-plate devices under static or controlled hemodynamic conditions for five days, and then treated with 0.1% dimethyl sulfoxide (DMSO) or known inducers of cytocrhome enzymesβ-methylcholanthrene and dexamethasone) for 48 hours. Porous membrane segments roughly 2 cm^2 in area were excised and transferred to standard 24-well plates alongside corresponding static cultures. The cells were incubated with 500 μl of hepatocyte media containing substrates from commercially available P450-GLO kits (kits for luminescent cytochrome p450 assays) at the manufacturer-recommended concentrations. After 4 hours, the media was transferred to 96-well plates and assayed for luminescent metabolites to reflect cytochrome p450 activity as per the manufacturer protocol.\n(§2) To validate that the increase in metabolic genes and proteins translated to changes in metabolic activity, primary rat hepatocytes were cultured as described earlier in the cone-and-plate devices under controlled hemodynamics (0.6 dynes/cm^2) and in static collagen gel cultures. […]"}, "[1]": {"details": "cited from earlier work; for Cmax: steady state plasma Cmax, patients, established therapeutic dosing; for in vivo Cmax level achieved in humans: human"}, "A549 cells": {"test_system": "A549 cells", "details": "static 2D cultures, cited from earlier work"}, "A549 tumor cells": {"test_system": "A549 tumor cells", "assay": "Growth of A549 tumor cells in tri-cultures under tumor capillary hemodynamics (PICOGREEN cell number)", "type": "cell-based", "details": "drug at human Cmax, day seven, tri-culture without exogenous ECM, hemodynamic flow and transport, vs vehicle", "description": "The vehicle control or drug was added to the inflow media for the endothelial cell layer and perfused into the upper volume. Tri-cultures were maintained in the presence of absence of drugs for up to seven days under hemodynamic flow and transport. Cell number was determined at day seven using the QUANT-IT PICOGREEN dsDNA Assay Kit according to the manufacturer's instructions (Life Technologies, Grand Island, N.Y.)."}, "[2]": {"details": "steady state plasma Cmax at therapeutic doses in mice, read-out: Mouse Cmax, cited from earlier work"}, "cytochrome p450 3A": {"test_system": "cytochrome p450 3A", "assay": "Cytochrome p450 3A activity (P450-GLO) in rat hepatocytes after inducer", "type": "in vitro ADME", "details": "controlled hemodynamics, dexamethasone 02.5 μM, 48 hours, day 7", "description": "as §1, §2"}, "primary rat hepatocytes [3]": {"test_system": "primary rat hepatocytes", "assay": "Toxicity of inducer concentration to rat hepatocytes under controlled flow", "type": "cell-based", "details": "50 μM, concentration recommended for inducing static cultures", "description": "As a result the concentration of the dexamethasone was decreased to 1 μg/ml in order to get an inductive response, a level that correlates well with plasma concentrations seen in vivo in rats."}, "primary rat hepatocytes [4]": {"test_system": "primary rat hepatocytes", "assay": "Gluconeogenesis assay (AMPLEX RED glucose in supernatant)", "type": "cell-based", "details": "4 hours; for Effect (% Change) on glucose levels: insulin 2 nM or glucagon 100 nM; for decreased glucose levels by: insulin 2 nM"}, "primary rat hepatocytes [5]": {"test_system": "primary rat hepatocytes", "details": "4 h, 1 μM", "description": "The hepatocytes were then washed with PBS and incubated with serum free hepatocyte medium with or without known toxic drug chlorpromazine (CPZ) at two different concentrations (1 μM and 10 μM) for 4 hours. Supernatants from the cells were collected and microRNA extraction was performed using the [sequence] serum/plasma kit (a kit for extracting microRNA, Qiagen). The cDNA was prepared by using the [sequence] RT kit (a kit for preparing cDNA, Qiagen) and samples quantified using the [sequence] SYBR GREEN PCR kit (a kit for quantifying cDNA, Qiagen), following the manufacturer's instructions.\nPrimary rat hepatocytes isolated and plated as described above were cultured in the cone-and-plate devices under controlled hemodynamic conditions or were cultured under static conditions (controls) for 7 days. The hepatocytes were washed with PBS and immediately incubated with either vehicle (distilled water) or chlorpromazine (1 μM) for 4 hours."}, "[6]": {"test_system": "primary human hepatocytes", "details": "72 h, 1 μM", "procedure": "RT-PCR: Changes in metabolic, toxic, and insulin/glucose/lipid pathway genes were assessed by extracting RNA from hepatocytes from devices run under healthy and steatotic conditions at the end of the culture period (7 or 14 days) and performing RT-PCR on this RNA. The […] were removed from the devices and washed with PBS prior to scraping the cells off the porous membrane. Total RNA was isolated using a […] RNA Mini Kit (a kit for purification of total RNA from cells) and reverse transcribed to cDNA using the ISCRIPT cDNA Synthesis Kit (a cDNA synthesis kit). Primers were designed for the metabolic genes CYP1A1, CYP1A2, CYP3A2, MDR, and GST as well as the insulin/glucose/lipid pathway genes GPAT, ACC1, IRS-2, PPAR-γ, SREBP, ChREBP, LXR, SCD1, CPT1. Primer sequences are shown below in Table 3:\nRNA expression was analyzed by real-time RT-PCR using IQ SYBR Green Supermix (a PCR reagent mixture for RT-PCR) and a CFX96 Real-Time System with C1000 Thermal Cycler (an RT-PCR detection system and thermal cycler). RNA data were normalized to endogenous expression of β2-microglobulin and reported as a relative quantity compared to healthy cultures.\nHuman genes assessed for metabolism and toxicity experiments included CYP1A1. CYP2A6, CYP2B6, CYP2C9, CYP2D6, CYP3A4, CYP3A5, GSTA1, UGT1A1, GSR, SORD, TXNRD1, and APEX1.\nCryopreserved primary human hepatocytes thawed and plated as described above were cultured in the cone-and-plate devices under controlled hemodynamics or were cultured under static conditions (controls) for 7 days before being exposed to different concentrations of chlorpromazine (0.1 μM, 1 μM, and 10 μM) or vehicle control for 72 hours. Live-dead staining was performed on the hepatocytes with ethidium-calcein stain. Hepatocytes were also incubated with MTT reagent for 1 hour to assess viability. RNA was extracted from additional segments and RT-PCR was performed to assess selected toxicity and metabolic genes."}, "[7]": {"test_system": "primary human hepatocytes", "details": "72 h", "description": "MTT Assay: To assess toxicity responses of human hepatocytes, the cells were plated and cultured in the cone-and-plate devices under hemodynamic conditions using the operating conditions described above or were cultured under static conditions (controls) for 7 days before being exposed to either 0.1% DMSO or known toxic drug chlorpromazine (0.1 μM, 1 μM and 10 μM) for 72 hours. Hepatocytes were then incubated with medium containing lmg/ml of MTT reagent (thiazolyl blue tetrazolium bromide) for 1 hour, following which the cells were lysed in DMSO to release the formazan blue dye formed. The solution was transferred to a 96 well plate and the absorbance was read at 595 nm."}, "rat hepatocytes [8]": {"test_system": "rat hepatocytes", "assay": "In vitro fatty liver model, metabolic gene expression (RT-PCR)", "type": "cell-based", "details": "1.5 μM, high insulin/glucose fatty liver media, controlled hemodynamics, day 7", "description": "(§3) RT-PCR: Changes in metabolic, toxic, and insulin/glucose/lipid pathway genes were assessed by extracting RNA from hepatocytes from devices run under healthy and steatotic conditions at the end of the culture period (7 or 14 days) and performing RT-PCR on this RNA. The [sequence] were removed from the devices and washed with PBS prior to scraping the cells off the porous membrane. Total RNA was isolated using a [sequence] RNA Mini Kit (a kit for purification of total RNA from cells) and reverse transcribed to cDNA using the ISCRIPT cDNA Synthesis Kit (a cDNA synthesis kit). Primers were designed for the metabolic genes CYP1A1, CYP1A2, CYP3A2, MDR, and GST as well as the insulin/glucose/lipid pathway genes GPAT, ACC1, IRS-2, PPAR-γ, SREBP, ChREBP, LXR, SCD1, CPT1.\nAfter 1 hour, the [sequence] were inverted and placed into cell culture dishes, and media was added (9 ml in the lower volume and 6 ml in the upper volume). After 24 hours (i.e., on day 2 of the experiments), the media was changed to maintenance media (the healthy or fatty liver media described above) and the Petri dishes were placed in the cone-and-plate hemodynamic flow device, and controlled hemodynamics were applied to the surface of the porous membrane of the [sequence] in the upper volume. […]"}, "rat hepatocytes [9]": {"test_system": "rat hepatocytes", "assay": "In vitro fatty liver model, total triglycerides", "type": "cell-based", "details": "1.5 μM, high insulin/glucose fatty liver media, controlled hemodynamics, day 7", "description": "After 1 hour, the [sequence] were inverted and placed into cell culture dishes, and media was added (9 ml in the lower volume and 6 ml in the upper volume). After 24 hours (i.e., on day 2 of the experiments), the media was changed to maintenance media (the healthy or fatty liver media described above) and the Petri dishes were placed in the cone-and-plate hemodynamic flow device, and controlled hemodynamics were applied to the surface of the porous membrane of the [sequence] in the upper volume. […] The cells were cultured under controlled hemodynamics until day 7, when hepatocytes were examined using the assays described below.\nAt the end of the treatment period, cells were collected from the porous membranes by scraping with a rubber policeman and PBS, after which they were centrifuged (2,000×g for 10 minutes at 4° C.). The cell pellets were resuspended in 100 μl of cold diluted Standard Diluent from the triglyceride assay kit and sonicated 20 times at one second bursts. The cell suspension was then centrifuged at 10,000×g for 10 minutes at 4° C. The supernatant was removed and used for the assay as per the manufacturer's protocol and normalized to protein content from the same samples. […]"}, "primary rat hepatocytes [10]": {"test_system": "primary rat hepatocytes", "assay": "Gene expression of oxidative stress-related genes, MRP3 and MRP4 in rat hepatocytes", "type": "cell-based", "details": "controlled hemodynamic conditions, in vivo/clinical plasma Cmax concentrations", "description": "as §3"}, "primary rat hepatocytes [11]": {"test_system": "primary rat hepatocytes", "assay": "CDFDA/CDF bile canalicular imaging (cholestatic changes)", "type": "cell-based", "details": "controlled hemodynamic conditions, 48 hours", "procedure": "For imaging of the biliary activity at canalicular junctions, sections of the porous membrane of the TRANSWELL were washed with PBS and incubated with media containing 10 μM carboxy-2,7-dichlorofluorescein diacetate (CDFDA) for 10 minutes. Samples were then washed with PBS and placed on glass slide for confocal imaging.\nThe hepatocytes were washed with PBS and immediately incubated with the substrate 10 uM carboxy-2,7-dichlorofluorescein diacetate (CDFDA). The cells were imaged by confocal microscopy during a 20-min exposure to the nonfluorescent substrate CDFDA to allow for the hydrolysis of the substrate to the highly fluorescent Mrp-2 substrate carboxy-2,7-dichlorofluorescein (CDF) and its active secretion into the bile canalicular structures."}, "[12]": {"details": "No substrate, controlled hemodynamics"}, "[13]": {"details": "substrate Glycerol 2 mM, controlled hemodynamics"}, "[14]": {"details": "substrate Lactate/Pyruvate (20 mM/2 mM), controlled hemodynamics"}}, "note": "Like-named read-outs stand apart in the source and are kept apart here."}
{"molecule": "Cc1ccc2cc3c(ccc4ccccc43)c3c2c1CC3", "note": "[3-MC, 3-Methyl Cholanthrene]", "values": [{"measurement": "1A/1B response (cytochrome p450 activity normalized to ATP)", "setting": "cytochrome p450 1A/1B", "result": 133.06}]}
{"molecule": "Cn1cnc2c(F)c(Nc3ccc(Br)cc3Cl)c(C(=O)NOCCO)cc21", "note": "[AZD6244/Selumetinib, Selumetinib]", "values": [{"measurement": "Cmax", "setting": "[1]", "result": 1400, "unit": "nM"}, {"measurement": "IC50", "setting": "A549 cells", "result": 5, "unit": "µM"}, {"measurement": "inhibited A549 growth", "setting": "A549 tumor cells", "result": 78, "unit": "%"}]}
{"molecule": "N.N.[Cl][Pt][Cl]", "note": "[Cisplatin, cisplatin]", "values": [{"measurement": "Cmax", "setting": "[2]; listed as cisplatin", "result": "> 10000", "unit": "nM"}, {"measurement": "Cmax", "setting": "[2]", "result": "> 10000", "unit": "nM"}, {"measurement": "Cmax", "setting": "[1]", "result": 3000, "unit": "nM"}, {"measurement": "IC50", "setting": "A549 cells; listed as cisplatin", "result": "> 6", "unit": "µM"}, {"measurement": "IC50", "setting": "A549 cells", "result": "> 6", "unit": "µM"}, {"measurement": "inhibited A549 growth", "setting": "A549 tumor cells", "result": 48, "unit": "%"}]}
{"molecule": "C[C@@H]1C[C@H]2[C@@H]3CCC4=CC(=O)C=C[C@]4(C)[C@@]3(F)[C@@H](O)C[C@]2(C)[C@@]1(O)C(=O)CO", "note": "[Dexamethasone, dexamethasone]", "values": [{"measurement": "3A response (cytochrome p450 activity normalized to ATP)", "setting": "cytochrome p450 3A", "result": 57.53}, {"measurement": "toxicity in the controlled flow system", "setting": "primary rat hepatocytes [3]", "result": "toxic"}]}
{"molecule": "OCC(O)CO", "note": "[Glycerol, glycerol]", "values": [{"measurement": "glucose produced by the hepatocytes increased in the presence of the substrate", "setting": "primary rat hepatocytes [4]; glycerol 2 mM, controlled hemodynamics", "result": 67, "unit": "%"}]}
{"molecule": "NC1(c2ccc(-c3nc4ccn5c(=O)[nH]nc5c4cc3-c3ccccc3)cc2)CCC1", "note": "[MK2206]", "values": [{"measurement": "Cmax", "setting": "[2]", "result": 540, "unit": "nM"}, {"measurement": "Cmax", "setting": "[1]", "result": 160, "unit": "nM"}, {"measurement": "IC50", "setting": "A549 cells", "result": 3, "unit": "µM"}, {"measurement": "inhibited A549 growth", "setting": "A549 tumor cells", "result": 44, "unit": "%"}]}
{"molecule": "N.N.O=C([O-])C1(C(=O)[O-])CCC1.[Pt+2]", "note": "[carboplatin]", "values": [{"measurement": "in vivo Cmax level achieved in humans", "setting": "[1]", "result": 37000, "unit": "ng/mL"}]}
{"molecule": "CN(C)CCCN1c2ccccc2Sc2ccc(Cl)cc21", "note": "[chlorpromazine]", "values": [{"measurement": "miRNA 122 levels in the supernatants compared to vehicle controls", "setting": "primary rat hepatocytes [5]", "result": "did not cause any change in miRNA 122 levels"}, {"measurement": "miRNA 122 released into supernatant, over vehicle controls", "setting": "primary rat hepatocytes [5]", "result": 6, "unit": "fold"}, {"measurement": "upregulation of APEX nuclease (multifunctional DNA repair enzyme)", "setting": "[6]", "result": 2.8, "unit": "fold"}, {"measurement": "upregulation of glutathione reductase (GSR)", "setting": "[6]", "result": 8.3, "unit": "fold"}, {"measurement": "upregulation of sorbitol dehydrogenase (SORD)", "setting": "[6]", "result": 6.9, "unit": "fold"}, {"measurement": "upregulation of thioredoxin reductase 1 (TXNRD1)", "setting": "[6]", "result": 5.5, "unit": "fold"}, {"measurement": "toxicity", "setting": "[7]; 1 μM", "result": 30.3, "unit": "%"}, {"measurement": "toxicity", "setting": "[7]; 10 μM", "result": 46.4, "unit": "%"}]}
{"molecule": "C#Cc1cccc(Nc2ncnc3cc(OCCOC)c(OCCOC)cc23)c1", "note": "[erlotinib]", "values": [{"measurement": "in vivo Cmax level achieved in humans", "setting": "[1]", "result": 1000, "unit": "ng/mL"}]}
{"molecule": "CCc1ccc(CCOc2ccc(CC3SC(=O)NC3=O)cc2)nc1", "note": "(centres unmarked) [pioglitazone]", "values": [{"measurement": "expression of metabolic genes such as Cyp3A2", "setting": "rat hepatocytes [8]", "result": "restored the expression of metabolic genes"}, {"measurement": "total triglyceride content of hepatocytes", "setting": "rat hepatocytes [9]", "result": "reduced total triglyceride content"}]}
{"molecule": "Cc1c(C)c2c(c(C)c1O)CCC(C)(COc1ccc(CC3SC(=O)NC3=O)cc1)O2", "note": "(centres unmarked) [troglitazone]", "values": [{"measurement": "gene expression associated with toxic response", "setting": "primary rat hepatocytes [10]", "result": "upregulation of oxidative stress-related genes and compensatory upregulation of MRP3 and MRP4 genes"}, {"measurement": "changes in bile canalicular pattern", "setting": "primary rat hepatocytes [11]; 4 uM", "result": "changes in the canalicular pattern with visibly dilated canalicular structures"}, {"measurement": "changes in bile canalicular pattern", "setting": "primary rat hepatocytes [11]; 40 uM", "result": "much more prominent and extensive"}]}
{"molecule": "glucagon", "values": [{"measurement": "Effect (% Change) on glucose levels", "setting": "primary rat hepatocytes [4]; [12]", "result": "+51%"}, {"measurement": "increased glucose levels by", "setting": "primary rat hepatocytes [4]; absence of a substrate, glucagon 100 nM", "result": 51, "unit": "%"}, {"measurement": "Effect (% Change) on glucose levels", "setting": "primary rat hepatocytes [4]; [13]", "result": "+15%"}, {"measurement": "Effect (% Change) on glucose levels", "setting": "primary rat hepatocytes [4]; [14]", "result": "+80%"}, {"measurement": "increased glucose levels by further", "setting": "primary rat hepatocytes [4]; substrate glycerol, glucagon 100 nM", "result": 15, "unit": "%"}, {"measurement": "increased glucose produced by", "setting": "primary rat hepatocytes [4]; substrates lactate and pyruvate, glucagon 100 nM", "result": 80, "unit": "%"}]}
{"molecule": "insulin", "values": [{"measurement": "Effect (% Change) on glucose levels", "setting": "primary rat hepatocytes [4]; [12]", "result": "−27", "unit": "%"}, {"measurement": "decreased glucose levels by", "setting": "primary rat hepatocytes [4]; absence of a substrate", "result": 27, "unit": "%"}, {"measurement": "Effect (% Change) on glucose levels", "setting": "primary rat hepatocytes [4]; [13]", "result": "−38", "unit": "%"}, {"measurement": "Effect (% Change) on glucose levels", "setting": "primary rat hepatocytes [4]; [14]", "result": "−25", "unit": "%"}, {"measurement": "decreased glucose levels by", "setting": "primary rat hepatocytes [4]; substrate glycerol", "result": 38, "unit": "%"}, {"measurement": "decreased glucose levels by", "setting": "primary rat hepatocytes [4]; substrates lactate and pyruvate", "result": 25, "unit": "%"}]}
